Experimental data reported in patent US20260049282A1, “METHOD FOR REMOVING SENESCENT CELL, AND METHOD FOR PREPARING SENESCENT CELL” (The University of Tokyo, priority 2018, published 2026).

Key:
[1] = tested on: senescent cells (senescence-induced normal human fibroblasts HCA2); experiment: Viable cell count (trypan blue) of senescent cells treated with glutaminase inhibitor; assay type: cell-based
Method: RO3306 (SIGMA-ALDRICH) (final concentration: 9 μM) was added to normal human fibroblasts (HCA2), followed by culture at 37° C. and 5% CO2 for 16 hours. Next, culture was performed at 37° C. and 5% CO2 for 8 hours in a culture medium containing RO3306 (final concentration: 9 μM) and Nutlin-3a (SIGMA-ALDRICH) (final concentration: 10 μM), and then culture was performed at 37° C. and 5% CO2 for 48 hours in a culture medium containing Nutlin-3a (final concentration: 10 μM). Culture was performed at 37° C. and 5% CO2 for 9 days while replacing the medium with a medium containing BI2536 (SIGMA-ALDRICH) (final concentration: 100 nM) every 3 days. Thereafter, senescence induction was carried out by performing culture at 37° C. and 5% CO2 for 9 days while replacing the medium with a normal medium (FIG. 1A).
(§1) Senescent cells and normal cells were seeded in 6-cm culture dishes such that approximately 10,000 cells were in each dish.

[2] = tested on: S6K protein T389 phosphorylation (indicator of activation of mTOR); experiment: Western blotting of S6K protein T389 phosphorylation in senescent cells; assay type: cell-based, human
Method: Further, the molecular mechanism of SASP inhibition was analyzed. […] Cell extracts were prepared from the cultured cells using Laemmli-buffer (2% SDS, 10% glycerol, 5% 2-mercaptoethanol, 0.002% bromophenol blue, and 62.5 mM Tris HCl at pH 6.8). Cell extracts (20 to 50 μg) were separated by SDS-PAGE, and after transcription to PVDF membrane, Western blotting was performed using an antibody to the T389 phosphorylation site of the […] protein (CST), an antibody to the S6K protein (CST), and an antibody to the p16 protein (abcam), and detection was performed by ECL.

senescent cells [3] = experiment: Cell viability of BPTES-treated cells in weakly basic medium (trypan blue count); assay type: cell-based, human; conditions: BPTES 10 μM
Method: Next, the pH of the medium of BPTES-treated cells was made weakly basic (pH 8.0 or pH 8.5), and the cell viability was examined.
(§2) Senescent cells and normal cells were separately seeded in 6-cm culture dishes such that approximately 10,000 cells were in each dish. […] Thereafter, the cells were stained with trypan blue every 24 hours, and the number of viable cells was counted using a hemocytometer.

[4] = tested on: ApoE knockout mice on atherogenetic diet; experiment: Obesity-associated atherosclerosis in ApoE knockout mice (Sudan IV staining of aorta); assay type: in vivo; conditions: atherogenetic diet 8 weeks, BPTES 0.25 mg/20 g/200 μl i.p. 3 times a week in latter 4 weeks
Method: C57BL/6J ApoE knockout mice (8 weeks old) were maintained on an atherogenetic diet (D12108C, Research Diets Inc.) for 8 weeks. […] In addition, C57BL/6J wild-type male mice (8 weeks old) were maintained on a normal diet as controls. All aortas except the arterial arch were cleanly depleted of adventitial fat, incised, and fixed flat in 4% […] at 25° C. for 12 hours. The aorta was washed with 70% ethanol for 5 minutes, incubated in 0.5% Sudan IV (in 1:1 acetone/ethanol) for 5 minutes, and then washed 3 times with 80% ethanol for 1 minute. Plaque formed in the aorta was stained with Sudan IV, the Sudan IV-positive area was quantified with ImageJ, and the plaque number was counted under a microscope.

[5] = tested on: intracellular pH in senescent cells; experiment: Intracellular pH measurement; assay type: cell-based, human; design: dose or concentration left out as unconfirmed; conditions: BPTES final concentration, 24 hours; normal level about 7.4
Method: Next, senescent cells and normal cells were separately seeded in 6-cm well plates such that approximately 50,000 cells were in each plate. […] The medium was removed, culture was performed at 37° C. and 5% CO2 for 10 minutes in a HEPES solution containing […] (DOJINDO LABORATORIES) at a final concentration of 3 μM, and washing with the HEPES solution was performed three times. Thereafter, luminescence was measured with a plate reader. In order to determine the pH value, the amount of luminescence of cells treated with the HEPES solution (pH 6.0 to 7.6) containing nigericin at a final concentration of 10 μM was corrected.

[6] = tested on: p16 mRNA (marker of senescent cells); experiment: Removal of senescent cells in vivo: p16 mRNA by qPCR in organs of aged mice; conditions: 96-week-old C57BL6/N male mice, 12.5 mg/kg body weight once a week for 1 month
Method: Then, each mouse was dissected, RNA was extracted by homogenizing the heart, brain, kidney, and liver, and total RNA was prepared using the RNeasy mini kit (Qiagen) according to the attached protocol and reverse transcribed into cDNA using the ReverTra Ace qPCR RT kit (Takara). Using the obtained cDNA, the expression level of p16 mRNA, which is a marker of senescent cells, was analyzed by qPCR using Power SYBR Green PCR Master Mix (Applied Biosystems). The p16 mRNA expression level was corrected by the value of GAPDH. Primers for detecting the p16 mRNA expression level are shown below.

mice fed a high fat diet = experiment: Obesity-associated senescent cell accumulation, macrophage infiltration and hypertrophy of white adipose tissue (high-fat diet mice); assay type: in vivo; conditions: high-fat diet 8 weeks, BPTES 0.25 mg/20 g/200 μl i.p. 3 times a week in latter 4 weeks
Method: Eight-week-old male mice (C57BL/6N) were maintained on a high-fat diet (HFD32, CLEA Japan) or a normal diet for 8 weeks. […] Then, white adipose tissue was collected from mice, and the accumulation of senescent cells was examined by SA-β-gal staining, and macrophage infiltration was examined by immunostaining with the anti-F4/80 antibody. In situ staining with SA-β-gal and the determination of the abundance ratio of SA-β-gal positive cells were carried out as described in 2-5-2. The degree of macrophage infiltration was determined as described in 2-5-1. The adipocyte size was measured with a BZ-X analyzer (Keyence).

aged mice (76 weeks old) = experiment: Age-associated dysfunction of kidney, lung, heart and liver in aged mice; assay type: in vivo; conditions: BPTES 0.25 mg/20 g/200 μl intraperitoneally, 1 month
Source text: It is examined whether removal of senescent cells by inhibition of glutaminolysis could improve aging or age-associated organ dysfunction.
The kidney, lung, liver, and heart were embedded with an OCT compound, thereby preparing frozen sections. Thereafter, tissue staining with hematoxylin-eosin (H&E), tissue staining with a Masson trichrome (MT) reagent, a periodic acid Schiff (PAS) reagent (Fisher Scientific), or immunostaining with DAB (3,3′-diaminobenzidine tetrahydrochloride) (DAKO) using an anti-F4-80 antibody (CST) was performed. After staining, tissue sections were observed under a microscope.
Kidney glomerulosclerosis was evaluated for 40 glomeruli per individual based on PAS-positive intensity and range. In addition, the serum urea concentration and creatinine concentration were measured using the Urea Assay kit (Abcam) and the Creatinine Assay kit (Abcam), respectively.
The degree of lung fibrosis was assessed by MT staining. […] In addition, when the MT-stained area was quantified by a BZ-X analyzer (Keyence), the degree of fibrosis was improved in the lungs of BPTES-treated mice as compared with the lungs of control mice (FIG. 7B, top).
For the heart, MT staining of heart tissue sections was performed so as to assess the degree of fibrosis (FIG. 8A). In addition, the heart weight was weighed, and the cardiomyocyte size was measured with a BZ-X analyzer (Keyence). As for the heart, the degree of fibrosis in the heart of BPTES-treated mice was improved as compared with the control mice (FIG. 8B).
Liver tissue sections were immunostained with an anti-F4/80 antibody (FIG. 9A) so as to assess the degree of macrophage infiltration. The degree of macrophage infiltration in the liver of BPTES-treated mice was improved compared to control mice (FIG. 9B).

[7] = tested on: mice on choline-deficient L-amino acid-defined high-fat diet; experiment: Liver dysfunction associated with non-alcoholic steatohepatitis (choline-deficient L-amino acid-defined high-fat diet mice); assay type: in vivo; conditions: NASH diet 8 weeks, BPTES 0.25 mg/20 g/200 μl i.p. 3 times a week in latter 4 weeks
Method: Eight-week-old male mice (C57BL/6N) were maintained on a choline-deficient L-amino acid-defined high-fat diet (A06071302, Research Diets Inc.) for 8 weeks. […] The serum AST level and the hydroxyproline (OH-Pro) level in the liver were measured by the AST assay kit (Abcam) and the Hydroxyproline assay kit (Abcam), respectively. In addition, the expression levels of p16, KGA, and IL-6 were measured by qPCR. Primers for qPCR are shown below.

[8] = tested on: normal cells (normal human fibroblasts HCA2); experiment: Viable cell count (trypan blue) of normal cells treated with glutaminase inhibitor; assay type: cell-based; conditions: BPTES final concentration 10 μM, 3 days
Method: as §1

[9] = tested on: IL-6 and IL-8 mRNA expression; experiment: qPCR of SASP factors IL-6 and IL-8 mRNA in senescent cells; assay type: cell-based, human; conditions: BPTES 2.5 μM, 24 hours
Method: After reverse transcription from total RNA into cDNA using the SuperScript II cDNA synthesis kit (Invitrogen) was performed, qPCR analysis was performed using the Power SYBR Green PCR Master Mix (Applied Biosystems) so as to measure the IL-6 and IL-8 expression levels. Primers for detecting the IL-6 and IL-8 mRNA expression levels are shown below.

[10] = tested on: ammonia production in senescent cells; experiment: Intracellular ammonia quantification (ammonia assay kit); assay type: cell-based, human; conditions: BPTES final concentration 10 μM, 24 hours
Source text: Senescent cells and normal cells were separately seeded in 10-cm culture dishes such that approximately 50,000 cells were in each dish. […] Thereafter, the amount of ammonia in cells was quantified using the ammonia assay kit (abcam).

senescent cells [11] = experiment: Effect of mPTP inhibitors on cell death of BPTES-treated cells (trypan blue count); assay type: cell-based, human; conditions: BPTES 10 μM alone
Method: The previous reports have shown that lowering intracellular pH causes apoptosis-independent cell death through the opening of mitochondrial permeability transition pore (mPTP) by the BNIP3 protein. Therefore, the effects of mPTP inhibitors (DUB and CsA) on BPTES-treated cells were examined.
as §2

COC(=O)CCC(=O)C(=O)OC [DM-KG]
rescue of senescent cell-selective cell death caused by BPTES ([1]; BPTES 10 μM plus transmembrane α-ketoglutaric acid): could hardly rescue
rescue of the BPTES inhibitory effect on S6K T389 phosphorylation ([2]; BPTES plus DM-KG): rescued

O=C(Cc1ccccc1)Nc1nnc(CCSCCc2nnc(NC(=O)Cc3ccccc3)s2)s1 [BPTES, bis-2-(5-phenylacetamido-1,3,4-thiadiazol-2-yl)ethyl sulfide]
cell death seen with BPTES treatment (senescent cells [3]; medium not weakly basic (pH 7.4)): at least 90%
cell death with BPTES under weakly basic pH conditions (senescent cells [3]; medium pH 8.0 or pH 8.5): about 30%
impact on the survival of senescent cells ([1]; BPTES final concentration 2.5 μM): little impact
aortic plaque area (Sudan IV-positive area) [4]: reduces
aortic plaque number [4]: reduces
intracellular pH in senescent cells [5]: about 6.0
p16 mRNA expression in the brain [6]: decreased
p16 mRNA expression in the heart [6]: decreased
p16 mRNA expression in the kidney [6]: decreased
p16 mRNA expression in the liver [6]: decreased
accumulation of senescent cells associated with obesity (SA-β-gal, white adipose tissue) (mice fed a high fat diet): reduced
degree of macrophage infiltration in white adipose tissue (anti-F4/80) (mice fed a high fat diet): reduced
size of adipocytes associated with obesity (mice fed a high fat diet): reduced
weight of white adipose tissue (mice fed a high fat diet): reduced
phosphorylation of the S6K protein T389 ([2]; BPTES 2.5 μM, 24 hours): inhibits phosphorylation
cardiomyocyte size (aged mice (76 weeks old)): smaller than that of control mice
heart weight (aged mice (76 weeks old)): lighter than that of young mice
serum creatinine concentration (aged mice (76 weeks old)): reduced
serum urea concentration (aged mice (76 weeks old)): reduced
degree of fibrosis in the heart (MT staining) (aged mice (76 weeks old); vs control mice): improved
degree of glomerulosclerosis (PAS staining) (aged mice (76 weeks old); vs control mice): improved
degree of lung fibrosis (MT-stained area) (aged mice (76 weeks old); vs control mice): improved
degree of macrophage infiltration in the liver (anti-F4/80 immunostaining) (aged mice (76 weeks old); vs control mice): improved
IL-6 expression level in the liver (qPCR) [7]: lowers
KGA expression level in the liver (qPCR) [7]: lowers
hydroxyproline (OH-Pro) level in the liver [7]: lowers
p16 expression level in the liver (qPCR) [7]: lowers
serum AST level [7]: lowers
number of cells (viable cells) [8]: increase in the number of cells
IL-6 mRNA expression [9]: inhibits mRNA expression
IL-8 mRNA expression [9]: inhibits mRNA expression
ammonia production in senescent cells [10]: suppresses the increased ammonia production in senescent cells to the same level as in normal cells
cell death seen with BPTES treatment (senescent cells [11]): at least 90%
